We go through 48 compounds from patent US20250195475A1, “CDK2 INHIBITOR AND PREPARATION METHOD AND USE THEREOF” (INVENTISBIO CO., LTD., priority 2022, published 2025).

Molecules are shown by their SMILES.

This test concerns the target CDK2/CyclinE1 (Homo sapiens (Human), UniProt P24941). The test is described as follows: CDK2 kinase assay (TR-FRET). Format: biochemical. The conditions noted are these: CDK2/CyclinE1 0.5 nM, ATP 50 μM. On the procedure: The purpose of these assays is to evaluate the inhibition of small molecule inhibitors by using TR-FRET assay.
Compound Preparation. Dissslove the compounds into DMSO solution to make 10 mM DMSO stock. Serially dilute the stock solution from highest concentration down to lowest in DMSO to make the compound stock plate (100× stock plates). To make 5× compound intermediate plate, add 38 μL of assay buffer (50 mM HEPES, pH 7.5, 0.05 mg/mL BSA, 10 mM MgCl2, 1 mM EGTA, 0.01% Tween-20, 2 mM DTT) into each well of the V-bottom plate; then transfer 2 μL of the stock compound solution of each concentration from the compound stock plate (100× stock), and mix well.
Enzyme reaction. Transfer 2 μL compound from 5× intermediate plate into assay plate, then add 4 μL/well 2.5× Enzyme mix to assay plate, incubation for 10 min at room temperature. For positive control wells, add 4 μL/well assay buffer instead of Enzyme mix. Then add 4 μL/well 2.5× Substrate mix to assay plate, and incubation at 25° C. for 30 min at room temperature. After reaction, 10 μL 2× Detection mix (final 15 mM EDTA, 1× LANCE Detection Buffer, 0.5 nM Detection antibody) was added and incubated for 1 h prior to detection with excitation and emission at 320 and 665 nm (Tecan Spark® TR-FRET mode Tecan).
Inhibition rate (IR) of the tested compounds was determined by the following formula: IR (%)=(average High control−compound well)/(average High control−average Low control)*100%. Fit the compound IC50 from non-linear regression equation: Y=Bottom+(Top−Bottom)/(1+10^((Log IC50−X)*HillSlope)). X: Log of cpd concentration; Y: Inhibition rate (TR); Top and Bottom: Plateaus in same units as Y, log IC50: same log units as X; HillSlope: Slope factor or Hill slope.

`Cc1cc(CC(=O)Nc2cc([C@H]3CC[C@@H](OC(=O)NC4COC5(CCC5)C4)C3)[nH]n2)on1` (single isomer, unassigned) [Compound 38] came in with an IC50 of 22.4 nM.
`Cc1cc(CC(=O)Nc2cc([C@H]3CC[C@@H](OC(=O)NC4COC5(CCC5)C4)C3)[nH]n2)on1` (single isomer, unassigned) [Compound 39] displayed a 50% inhibitory concentration (IC50) of 4 nM. This IC50 lies about 5.6-fold lower than the previous one.
For `Cn1nccc1C(=O)Nc1cc([C@H]2CC[C@@H](OC(=O)NC3COC4(CCC4)C3)C2)[nH]n1` (single isomer, unassigned) [Compound 43], the IC50 is 12.1 nM.
The value for `Cn1nc(C2CC2)cc1C(=O)Nc1cc([C@H]2CC[C@@H](OC(=O)NC3COC4(CCC4)C3)C2)[nH]n1` (single isomer, unassigned) [Compound 47] was 64 nM.
With `Cn1nc(C2CC2)cc1C(=O)Nc1cc([C@H]2CC[C@@H](OC(=O)NC3COC4(CCC4)C3)C2)[nH]n1` (single isomer, unassigned) [Compound 48], the midpoint of inhibition, the IC50, lay at 10.7 nM.
Then `COC1CCC(C(=O)Nc2cc([C@H]3CC[C@@H](OC(=O)NC(C)C)C3)[nH]n2)C1` (single isomer, unassigned) [Compound 60], with 37.4 nM.
Then `COC1CCC(C(=O)Nc2cc([C@H]3CC[C@@H](OC(=O)NC(C)C)C3)[nH]n2)C1` (single isomer, unassigned) [Compound 61], with 13.1 nM.
`COC[C@H]1C[C@@H]1C(=O)Nc1cc([C@H]2CC[C@@H](OC(=O)NC(C)C(F)F)C2)[nH]n1` (single isomer, unassigned) [Compound 107] gave an IC50 of 3 nM. This IC50 is about 4.4-fold lower than that of the compound before.
Then `COC[C@H]1C[C@@H]1C(=O)Nc1cc([C@H]2CC[C@@H](OC(=O)NC(C)C(F)F)C2)[nH]n1` (single isomer, unassigned) [Compound 108], with 5 nM; and `CC(C)NC(=O)O[C@@H]1CC[C@H](c2cc(NC(=O)C3CC3C#N)n[nH]2)C1` (single isomer, unassigned) [Compound 117], with 3.8 nM; and `CC(C)NC(=O)O[C@@H]1CC[C@H](c2cc(NC(=O)C3CC3C#N)n[nH]2)C1` (single isomer, unassigned) [Compound 118], with 1.8 nM.
`CC(C)NC(=O)O[C@@H]1CC[C@H](c2cc(NC(=O)C3CC(C)N(S(C)(=O)=O)C3)n[nH]2)C1` (single isomer, unassigned) [Compound 144] displayed an IC50 of 4.3 nM.
Then `CC(C)NC(=O)O[C@@H]1CC[C@H](c2cc(NC(=O)C3CC4CCC3O4)n[nH]2)C1` (single isomer, unassigned) [Compound 146], with 44.3 nM.
Then `COCC1CC(C(=O)Nc2cc([C@H]3CC[C@@H](OC(=O)NC(C)C)C3)[nH]n2)C1` (single isomer, unassigned) [Compound 148], with 5.5 nM; and `COCC1CC(C(=O)Nc2cc([C@H]3CC[C@@H](OC(=O)NC(C)C)C3)[nH]n2)C1` (single isomer, unassigned) [Compound 149], with 13.4 nM.
`CC(C)NC(=O)O[C@@H]1CC[C@H](c2cc(NC(=O)C3CC4CCC3O4)n[nH]2)C1` (single isomer, unassigned) [Compound 152] displayed an IC50 of 85.5 nM.
The compound `CC(C)NC(=O)O[C@@H]1CC[C@H](c2cc(NC(=O)C3CC3c3cnnn3C)n[nH]2)C1` (single isomer, unassigned) [Compound 153] yielded an IC50 of 2.1 nM. Against the preceding compound, the IC50 is about 41-fold lower.
The value for `CC(C)NC(=O)O[C@@H]1CC[C@H](c2cc(NC(=O)C3CC3c3cnnn3C)n[nH]2)C1` (single isomer, unassigned) [Compound 154] was 2.6 nM.
In turn, `Cc1c(C2CC2C(=O)Nc2cc([C@H]3CC[C@@H](OC(=O)NC(C)C)C3)[nH]n2)cnn1C` (single isomer, unassigned) [Compound 163] returned a 50% inhibitory concentration (IC50) of 0.7 nM.
The value for `CC(C)(C)NC(=O)O[C@@H]1CC[C@H](c2cc(NC(=O)C3CC3C#N)n[nH]2)C1` (single isomer, unassigned) [Compound 187] was 1.4 nM; that for `CC(C)(C)NC(=O)O[C@@H]1CC[C@H](c2cc(NC(=O)C3CC3C#N)n[nH]2)C1` (single isomer, unassigned) [Compound 188] was 0.6 nM; that for `CC(C)NC(=O)O[C@H]1CC[C@@H](c2cc(NC(=O)C3CC3C#N)n[nH]2)C1` (single isomer, unassigned) [Compound 192] was 2 nM.
The compound `CC(C)NC(=O)O[C@H]1CC[C@@H](c2cc(NC(=O)C3CC3C#N)n[nH]2)C1` (single isomer, unassigned) [Compound 193] showed an IC50 of 0.6 nM.
Compound `CC1(NC(=O)O[C@H]2CC[C@@H](c3cc(NC(=O)C4CC4C#N)n[nH]3)C2)CC1` (single isomer, unassigned) [Compound 195] displayed an IC50 of 1.5 nM.
Then `CC1(NC(=O)O[C@H]2CC[C@@H](c3cc(NC(=O)C4CC4C#N)n[nH]3)C2)CC1` (single isomer, unassigned) [Compound 196], with 0.4 nM.
Then `CC[C@H](C)NC(=O)O[C@@H]1CC[C@H](c2cc(NC(=O)C3CC3C#N)n[nH]2)C1` (single isomer, unassigned) [Compound 199], with 2.3 nM.
`CC[C@H](C)NC(=O)O[C@@H]1CC[C@H](c2cc(NC(=O)C3CC3C#N)n[nH]2)C1` (single isomer, unassigned) [Compound 200] gave a half-inhibitory concentration (IC50) of 0.9 nM.
`Cc1c(C2CC2C(=O)Nc2cc([C@H]3CC[C@@H](OC(=O)NC4(C)CC4)C3)[nH]n2)cnn1C` (single isomer, unassigned) [Compound 205]: the IC50 amounted to 24 nM.
`Cc1c(C2CC2C(=O)Nc2cc([C@H]3CC[C@@H](OC(=O)NC4(C)CC4)C3)[nH]n2)cnn1C` (single isomer, unassigned) [Compound 206] gave an IC50 of 0.8 nM.
Then `Cc1c(C2CC2C(=O)Nc2cc([C@@H]3CC[C@H](OC(=O)NC(C)C)C3)[nH]n2)cnn1C` (single isomer, unassigned) [Compound 207], with 40.1 nM; and `Cc1c(C2CC2C(=O)Nc2cc([C@@H]3CC[C@H](OC(=O)NC(C)C)C3)[nH]n2)cnn1C` (single isomer, unassigned) [Compound 208], with 0.8 nM; and `CC(C)NC(=O)O[C@@H]1CC[C@H](c2cc(NC(=O)C3CC3c3cnn(C)c3)n[nH]2)C1` (single isomer, unassigned) [Compound 209], with 29 nM.
`CC(C)NC(=O)O[C@@H]1CC[C@H](c2cc(NC(=O)C3CC3c3cnn(C)c3)n[nH]2)C1` (single isomer, unassigned) [Compound 210]: the half-inhibitory concentration (IC50) was 1 nM.
Turning to `CC1(NC(=O)O[C@@H]2CC[C@H](c3cc(NC(=O)C4CC4C#N)n[nH]3)C2)CC1` (single isomer, unassigned) [Compound 212], 2.1 nM corresponded to half-maximal inhibition (IC50). Against the preceding compound, the IC50 is about 2.1-fold higher.
Compound `CC1(NC(=O)O[C@@H]2CC[C@H](c3cc(NC(=O)C4CC4C#N)n[nH]3)C2)CC1` (single isomer, unassigned) [Compound 213] displayed an IC50 of 0.9 nM.
Then `COC(C)[C@H]1C[C@@H]1C(=O)Nc1cc([C@H]2CC[C@@H](OC(=O)NC3(C)CC3)C2)[nH]n1` (single isomer, unassigned) [Compound 220], with 1.5 nM.
The value for `COC(C)[C@H]1C[C@@H]1C(=O)Nc1cc([C@H]2CC[C@@H](OC(=O)NC3(C)CC3)C2)[nH]n1` (single isomer, unassigned) [Compound 221] was 0.8 nM; that for `CC(C)NC(=O)O[C@@H]1CC[C@H](c2cc(NC(=O)C3CCOCC3)n[nH]2)C1` [Compound 1] was 7.1 nM.
`CO[C@H]1CC[C@H](C(=O)Nc2cc([C@H]3CC[C@@H](OC(=O)NC(C)C)C3)[nH]n2)CC1` [Compound 2]: the IC50 was 17.8 nM.
Compound `CC(C)NC(=O)O[C@@H]1CC[C@H](c2cc(NC(=O)[C@H]3CCN(S(C)(=O)=O)C3)n[nH]2)C1` [Compound 7] had a half-maximal inhibitory concentration (IC50) of 2.4 nM. This IC50 is about 7.4-fold lower than that of the compound before.
Then `CC(C)NC(=O)O[C@@H]1CC[C@H](c2cc(NC(=O)C3CCN(S(C)(=O)=O)CC3)n[nH]2)C1` [Compound 8], with 11.3 nM; and `COCc1cc(C(=O)Nc2cc([C@@H]3C[C@H](OC(=O)NC(C)C)[C@@H]4C[C@@H]43)[nH]n2)n(C)n1` [Compound 9], with 1000 nM; and `COCc1cc(C(=O)Nc2n[nH]c([C@H]3CC[C@@H](OC(=O)NC(C)C)C3)c2F)n(C)n1` [Compound 10], with 92.4 nM.
`CC(C)NC(=O)O[C@@H]1CC[C@H](c2cc(Nc3nccc(-c4cnn(C)c4)n3)n[nH]2)C1` [Compound 11]: the IC50 worked out at 40.7 nM.
On to `CC(C)NC(=O)O[C@@H]1CC[C@H](c2cc(Nc3nccc(CCO)n3)n[nH]2)C1` [Compound 12], for which half-maximal inhibition (IC50) required 10.1 nM.
With `CC(C)NC(=O)O[C@@H]1CC[C@H](c2cc(NC(=O)[C@H]3CCN(CC(F)F)C3)n[nH]2)C1` [Compound 13], it took 5.8 nM to reach half-maximal inhibition (IC50). This IC50 is about 1.7-fold lower than that of the compound before.
Then `CC(C)NC(=O)O[C@@H]1CC[C@H](c2cc(NC(=O)[C@H]3CCN(C(=O)C(C)C)C3)n[nH]2)C1` [Compound 14], with 1.7 nM.
The value for `COCc1cc(C(=O)NC2=NCC([C@H]3CC[C@H](N4CCN(C(C)C)C4=O)C3)=C2)n(C)n1` [Compound 20] was 1000 nM.
